# Data from ChEMBL document CHEMBL4804284.
# Biological target: Casein kinase I isoform gamma-3 (Homo sapiens) (UniProt Q9Y6M4)
# Assay: Inhibition of DNA-tagged human CSNK1G3 assessed as percent of control at 50000 nM by qPCR analysis relative to control
# Design: scale not given: the % may be the effect or the level left
# Chain of Casein kinase I isoform gamma-3 (Homo sapiens) (Q9Y6M4 whole entry, looked up, canonical isoform): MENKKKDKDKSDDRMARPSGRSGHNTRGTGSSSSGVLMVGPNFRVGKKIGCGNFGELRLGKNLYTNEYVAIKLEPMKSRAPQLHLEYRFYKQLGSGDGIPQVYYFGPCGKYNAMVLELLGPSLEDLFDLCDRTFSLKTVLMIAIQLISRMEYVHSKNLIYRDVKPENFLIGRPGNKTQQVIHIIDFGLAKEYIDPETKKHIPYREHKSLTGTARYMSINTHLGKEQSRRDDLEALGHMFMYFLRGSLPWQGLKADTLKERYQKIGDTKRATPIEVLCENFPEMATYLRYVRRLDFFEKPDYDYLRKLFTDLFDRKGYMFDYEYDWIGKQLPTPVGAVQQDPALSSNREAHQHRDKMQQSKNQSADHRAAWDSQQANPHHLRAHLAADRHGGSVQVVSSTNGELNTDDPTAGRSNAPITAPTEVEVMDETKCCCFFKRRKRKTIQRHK
structure (smiles),measurement,value
CN1C(=O)/C(=C2/C(=O)Nc3ccccc32)c2ccccc21,Activity,90%
